Data taken from ChEMBL document CHEMBL1759955, “6-Benzoyl-3-hydroxypyrimidine-2,4-diones as dual inhibitors of HIV reverse transcriptase and integrase” (Bioorg Med Chem Lett, 2011).
pEC50, pIC50: −log10 of the molar value.

Columns and labels:
[1] = system: Human immunodeficiency virus 1; test: Antiviral activity against HIV-1 3B infected in human CEM-SS cells assessed as protection against virus induced cytopathic effect at 10 uM; assay type: functional; conditions: Human immunodeficiency virus 1, 3B
[2] = biological target: Human immunodeficiency virus type 1 reverse transcriptase (Human immunodeficiency virus 1) (UniProt Q72547); test: Inhibition of HIV-1 reverse transcriptase at 100 uM
CEM-SS [3] = test: Cytotoxicity against human CEM-SS cells; assay type: cell-based
[4] = biological target: Human immunodeficiency virus type 1 reverse transcriptase (Human immunodeficiency virus 1) (UniProt Q72547); test: Inhibition of HIV-1 reverse transcriptase at 10 uM
[5] = biological target: T1, Human immunodeficiency virus type 1 integrase (Human immunodeficiency virus 1, UniProt Q7ZJM1); test: Inhibition of HIV1 integrase strand transfer activity
T1 sequence (Q7ZJM1 whole entry): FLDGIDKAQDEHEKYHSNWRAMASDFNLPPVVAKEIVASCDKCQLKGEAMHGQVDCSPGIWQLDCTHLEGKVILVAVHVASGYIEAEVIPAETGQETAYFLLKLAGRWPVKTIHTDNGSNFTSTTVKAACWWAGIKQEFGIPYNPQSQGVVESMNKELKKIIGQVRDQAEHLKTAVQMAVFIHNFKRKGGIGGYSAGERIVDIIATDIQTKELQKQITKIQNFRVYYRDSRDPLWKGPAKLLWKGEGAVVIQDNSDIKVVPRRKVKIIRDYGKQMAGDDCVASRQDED

CEM-SS [6] = test: Cytotoxicity against human CEM-SS cells assessed as viable cells at 10 uM; assay type: cell-based
[7] = system: Human immunodeficiency virus 1; test: Antiviral activity against HIV-1 3B infected in human CEM-SS cells; assay type: functional, organism-based; conditions: Human immunodeficiency virus 1, 3B
[8] = Therapeutic index, ratio of CC50 for human CEM-SS cells to EC50 for HIV-1 3B infected in human CEM-SS cells; assay type: cell-based; conditions: CEM-SS cells (uninfected, and infected with HIV-1 3B)
[9] = biological target: T1, Human immunodeficiency virus type 1 integrase; test: Inhibition of HIV1 integrase 3'-end processing activity
[10] = biological target: Human immunodeficiency virus type 1 reverse transcriptase (Human immunodeficiency virus 1, UniProt Q72547); test: Inhibition of HIV-1 reverse transcriptase

## CCc1c(C(=O)c2ccccc2)n(COCCc2ccc(F)cc2)c(=O)n(O)c1=O
[1]
  inhibition at 10 µM: 100%
[2]
  inhibition: 46%
CEM-SS [3]
  CC50: > 100 µM
[4]
  inhibition: 4%
[5]
  pIC50: 5.39
CEM-SS [6]
  Activity: 100%
[7]
  pEC50: 6.47
[8]
  selectivity ratio: > 290
[9]
  pIC50: < 3.95

## CCc1c(C(=O)c2cc(C)cc(C)c2)n(COCCc2ccc(F)cc2)c(=O)n(O)c1=O
[1]
  inhibition at 10 µM: 56%
[2]
  inhibition: 74%
[4]
  inhibition: 60%
[5]
  pIC50: 5.15
CEM-SS [6]
  Activity: 81%
[10]
  pIC50: 5.00
[9]
  pIC50: < 3.95

## CCc1c(C(=O)c2cc(C)cc(C)c2)n(COCc2ccccc2)c(=O)n(O)c1=O
[1]
  inhibition at 10 µM: 100%
[2]
  inhibition: 92%
CEM-SS [3]
  CC50: 33 µM
[4]
  inhibition: 79%
[5]
  pIC50: 4.39
CEM-SS [6]
  Activity: 100%
[7]
  pEC50: 7.21
[8]
  selectivity ratio: 540
[10]
  pIC50: 6.00
[9]
  pIC50: < 3.95

## CCc1c(C(=O)c2cc(C)cc(C)c2)n(COCc2ccc(F)cc2)c(=O)n(O)c1=O
[1]
  inhibition at 10 µM: 100%
CEM-SS [3]
  CC50: 28 µM
[5]
  pIC50: 4.68
CEM-SS [6]
  Activity: 100%
[7]
  pEC50: 6.44
[8]
  selectivity ratio: 78
[10]
  pIC50: 5.12
[9]
  pIC50: < 3.95

## CCc1c(C(=O)c2ccccc2)n(COCc2ccccc2)c(=O)n(O)c1=O
[1]
  inhibition at 10 µM: 100%
CEM-SS [3]
  CC50: > 100 µM
[5]
  pIC50: 4.43
CEM-SS [6]
  Activity: 98%
[7]
  pEC50: 5.85
[8]
  selectivity ratio: > 71
[10]
  pIC50: 4.85
[9]
  pIC50: < 3.95

## CCc1c(C(=O)c2ccccc2)n(COCc2ccc(F)cc2)c(=O)n(O)c1=O
[1]
  inhibition at 10 µM: 100%
CEM-SS [3]
  CC50: > 100 µM
[5]
  pIC50: 4.60
CEM-SS [6]
  Activity: 100%
[7]
  pEC50: 5.70
[8]
  selectivity ratio: > 50
[10]
  pIC50: 4.64
[9]
  pIC50: < 3.95

## CCOCn1c(C(=O)c2cc(C)cc(C)c2)c(CC)c(=O)n(O)c1=O
[1]
  inhibition at 10 µM: 100%
[2]
  inhibition: 94%
CEM-SS [3]
  CC50: 77 µM
[4]
  inhibition: 61%
[5]
  pIC50: < 3.95
CEM-SS [6]
  Activity: 100%
[7]
  pEC50: 7.52
[8]
  selectivity ratio: 2600
[10]
  pIC50: 6.30
[9]
  pIC50: < 3.95

## CCOCn1c(C(=O)c2ccccc2)c(CC)c(=O)n(O)c1=O
[1]
  inhibition at 10 µM: 100%
CEM-SS [3]
  CC50: 94 µM
[5]
  pIC50: < 3.95
CEM-SS [6]
  Activity: 100%
[7]
  pEC50: 5.64
[8]
  selectivity ratio: 41
[10]
  pIC50: 4.37
[9]
  pIC50: < 3.95
